Test results as given in patent US10329304B2, “Compounds and methods for inhibition of hedgehog signaling and phosphodiesterase” (Vanderbilt University, priority 2014, dated 2019).
“Also recorded” adds a separate entry of the source.

System: mouse aorta
Assay: Myography of cannulated mouse aorta
Details: listed as Egm
Description: For myography, to test the vascular tone for presense of downstream or off target effects, mouse aorta was mounted and cannulated on a closed system. A physiological buffer (with respect to pH, CO2, and temperature) was circulated through the vessel.

In the case of C=C(C)Cn1c(SCC(=O)c2cccs2)nc2sc3c(c2c1=O)CCCC3 [EGM, Eggmanone], the “Vessel diameter after pre-constriction” value is reported as “little to no contraction or dilation of the vessel; also recorded: had no effect on the vessel”.
